Data: patent publication US9561228B2 (Celgene Avilomics Research, Inc., priority 2013, dated 2017)

Legend:
[1] = test system: A375 cells (malignant melanoma); assay: Inhibition of cancer cell proliferation, A375 (CellTiterGlo, 72 hours); type: cell-based; details: Homo sapiens, A-375
How it was run: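 GI50 derived from % growth inhibition relative to untreated wells, after luminescence (CellTiterGlo, 10 min) was converted to cell counts using a standard curve. Compound given as 3-fold dilutions from a 2× 5,000 nM stock in serum-free DMEM; 3000 A375 cells/well, 72 h culture at 37 °C.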

[2] = test system: ERK1/2 phosphorylation of p90RSK in HT29 cells; assay: pRSK MSD Assay in HT29 cells; type: cell-based; details: Homo sapiens, HT-29, read-out: ERK1/ERK2 PRSK MSD HT29 EC50
How it was run: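 Phospho-RSK level, read by electrochemiluminescence on RSK-antibody-coated MSD plates with a phospho-RSK/Sulfo-tag detection pair, reports cellular ERK1/2 activity. HT29 cells, kept overnight in 0.1% FBS medium, were exposed to compound for 120 min at 37° C before lysis.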

[3] = test system: HT-29 cells (colorectal adenocarcinoma); assay: Inhibition of cancer cell proliferation, HT-29 (CellTiterGlo, 72 hours); type: cell-based; details: Homo sapiens
How it was run: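 Proliferation over 72 h at 37° C was read by CellTiterGlo luminescence, translated to cell counts with a cell-density standard curve (390–50,000 cells). Compound added as 3-fold dilutions from a 5,000 nM two-fold stock to 3000 seeded HT-29 cells; GI50 from percent inhibition relative to untreated wells.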

ERK1/ERK2 = assay: Measurement of Erk occupancy with biotinylated covalent probe I-299 (HT-29); type: cell-based; details: HT-29 cells
Description: Measurement of Erk Occupancy with Biotinylated Covalent Probe
This experiment measured occupancy of the ERK1/ERK2 target by compounds according to the invention. This experiment was conducted using the Mesoscale Discovery test kit (Cat. # N45107B). One day before the assay, cells were split and added at 50,000 cells per well to a flat-bottom 96 well plate in 200 μl of growth medium. The next day, the medium was discarded, 100 μl medium containing test compound was added, and the plate was incubated at 37° C. for 120 minutes. The plate was rinsed once with PBS, and 50 μl lysis buffer with test compound was added. The plate was incubated at 4° C. for 30 min, and 30 μl of lysate was transferred to a plate to capture total and phosphor-Erk. Biotinylated probe 1-299 was diluted in lysis buffer and added to each well to a final concentration of 0.2 μM. The plate was incubated for 2 hr under constant shaking at room temperature. The plate was washed 3 times with MSD wash buffer. To detect the biotinylated probe bonding, tagged streptavidin was added (Mesoscale Discovery, Cat. # R32AD-1) at 1 μg/ml, 25 μl/well, followed by a 60 min incubation under shaking. The plate was washed 3 times, 150 μl MSD Read Buffer (Mesoscale Discovery, Cat. R61TX) was added and the plate was read in a plate reader manufactured by MSD. Percent occupancy by test compound at Erk was calculated by comparing the chemiluminescence readings from treated cells as compared to the chemiluminescence readings in untreated controls (which are defined as 100% probe bonding or 0% test compound occupancy). The amount of covalent probe signal divided by the amount of ERK signal for samples with no test compound treatment represents the maximum probe signal (MPS). In samples treated with test compound prior to covalent probe, the ratio of probe signal to ERK signal (the test probe signal, TPS) was reduced by the degree of target occupancy by the test compound which blocks covalent probe binding. The difference between the MPS and the TPS, divided by the MPS gave the target occupancy by the test compound. This ratio was then expressed as a percent occupancy. Results from this assay are provided in Table A below under the column “Occupancy EC50 (nM) HT-29.”

Erk1 = target: T1, Erk1 (Homo sapiens, UniProt P27361); assay: Protein Mass Modification Assay (intact protein MALDI, 60 min, 10-fold excess of compound); type: binding
T1 construct: purchased Millipore 14-439
How it was run: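 Percent covalent modification comes from the intact-protein MALDI centroid mass shift, treated versus control, divided by compound MW. Before analysis, human Erk1 was exposed to compound at 10-fold excess over protein for 60 min at room temperature.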

[4] = test system: HCT116 cells (colorectal carcinoma); assay: Inhibition of cancer cell proliferation, HCT116 (CellTiterGlo, 72 hours); type: cell-based; details: Homo sapiens, HCT-116
Description: Measurement of Inhibition of Cancer Cell Proliferation (HCT116/Colorectal Carcinoma)
The following protocol used a HCT116 cell line, which cell line is a model for colorectal carcinoma. HCT116 cells were split and 3000 cells in 100 μl of growth medium were added per well of a flat-bottom 96-well plate. A two-fold test compound solution in serum-free RPM1640 was made, starting at 5,000 nM. Then, 3-fold serial dilutions were made across the plate from well 1 to well 11. Well 12, the last well in a row on the plate, was left as untreated control. 100 μl compound solutions were then transferred to the wells, so the total volume of media was 200 μl per well. Plates were returned to a 37° C. incubator, and the cells were cultured for 72 hours. To measure cell proliferation after 72 hours, media was discarded from the plates, 50 μl/well of fresh medium was added, and 50 μl CellTiterGlo solution was added (Promega Cat#G7573). The plate was covered with a dark lid and incubated for 10 min. A white sealing tape was applied to the bottom of the plate, and the plate was read in a luminescence plate reader. […] 50 μl CellTiterGlo was added per well, and the plate was read in a luminescence plate reader after 10 min. The reading was plotted vs. cell number to generate a standard curve and the equation of the curve fit. The compound-treated sample luminescence readings were converted to cell numbers using the curve-fit equation. The percent of inhibition, using untreated control as 100% growth, was then calculated. GI50 was then calculated by GraphPad Prism.

[5] = test system: ERK1/2 phosphorylation of p90RSK (pRSK); assay: Duration of action after washout: p-RSK inhibition at 6 hr; type: cell-based; details: 6 hr after washout
Description: Measurement of Duration of Action of Test Compounds
One day before the assay, the cells were split and added at 50,000 cells per well in flat-bottom 96 well plate in 200 μl of growth media. The next day, the medium was discarded, 100 μl medium containing test compounds was added, and the plate was incubated at 37° C. for 120 minutes. The medium was discarded, and the cells were rinsed 3 times with PBS followed by addition of 200 μl of fresh grow medium. The plate was returned to a 37° C. incubator, and separate cell lysates were made using MSD lysis buffer after 0.25, 0.5, 1, 2, 4, 6, 8 and 18 or 24 hours. Thereafter, pRSK was measured as described above in the section entitled pRSK MSD Assay.

[6] = test system: ERK1/2 phosphorylation of p90RSK in A375 cells; assay: Detection of total and phosphor-RSK by MSD ELISA (A375); type: cell-based; details: Homo sapiens, A-375, read-out: ERK1/ERK2 PRSK A375 EC50
How it was run: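 Electrochemiluminescent MSD ELISA: common RSK capture antibody, with pRSK Ser380 or total RSK detection antibodies plus SulfoTag secondaries. Samples were lysates of A375 cells exposed to compound for 2 h at 37° C after overnight culture in 0.1% FBS DMEM.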

MEK1 activated ERK1 = target: T2, MEK1 activated ERK1 (Homo sapiens, UniProt P27361); assay: Omnia continuous-read kinase assay for potency against MEK1 activated ERK1; type: biochemical; details: MEK1 activated ERK1, ATP at KM; read-out: ERK1 Omnia WT ATP KM IC50
T2 construct: purchased Millipore (Billerica, Mass.) 14-439-K
How it was run: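 Apparent IC50 came from initial reaction slopes (RFU vs time) plotted against log inhibitor with a variable-slope fit. Reactions were started with ERK1 (4 nM final) added to 50 μM ATP, roughly at its appKM, and 10 μM Sox-conjugated ST17 peptide in 20 mM Tris pH 7.5, 5 mM MgCl2. Fluorescence was monitored every 71 seconds.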

T1 sequence (P27361 whole entry): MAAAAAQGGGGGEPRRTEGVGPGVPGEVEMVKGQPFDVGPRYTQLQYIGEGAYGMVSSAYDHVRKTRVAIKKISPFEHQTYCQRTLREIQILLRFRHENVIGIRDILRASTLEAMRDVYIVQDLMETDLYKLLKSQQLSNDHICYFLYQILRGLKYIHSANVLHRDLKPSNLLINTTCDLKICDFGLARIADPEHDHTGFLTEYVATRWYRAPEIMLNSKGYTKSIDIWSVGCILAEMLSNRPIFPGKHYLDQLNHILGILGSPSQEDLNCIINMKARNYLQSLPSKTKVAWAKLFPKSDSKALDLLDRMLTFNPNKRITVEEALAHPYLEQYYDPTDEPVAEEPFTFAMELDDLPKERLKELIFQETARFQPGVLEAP
T2 sequence (P27361 whole entry): as above

GI50 [1] [nM]	EC50 [2] [nM]	GI50 [3] [nM]	EC50 (ERK1/ERK2) [nM]	ERK1 Mass Mod (%) (Erk1)	GI50 [4] [nM]	EC50 [6] [nM]	IC50 (MEK1 activated ERK1) [nM]	Structure (SMILES)	p-RSK inhibition at 6 hr (%) [5]
101 to 500	501 to 999	< 100	< 100					C=CC(=O)Nc1ccccc1Nc1nc(Nc2cc(C(N)=O)c(F)cc2C)ncc1C(F)(F)F [Compound I-76, 5-((4-((2-Acrylamidophenyl)amino)-5-(trifluoromethyl)pyrimidin-2-yl)amino)-2-fluoro-4-methylbenzamide]	
101 to 500	101 to 500	< 100	< 100		101 to 500			C=CC(=O)Nc1ccccc1Nc1nc(Nc2cc(CO)c(F)cc2C)ncc1C(F)(F)F [Compound I-77, N-(2-((2-((4-Fluoro-5-(hydroxymethyl)-2-methylphenyl)amino)-5-(trifluoromethyl)pyrimidin-4-yl)amino)phenyl)acrylamide]	
< 100		< 100			< 100	< 100		C=CC(=O)Nc1ccccc1Nc1nc(N[C@H]2CCCN(C(=O)CO)C2)ncc1C(F)(F)F [Compound I-15, (S)—N-(2-((2-((1-(2-hydroxyacetyl)piperidin-3-yl)amino)-5-(trifluoromethyl)pyrimidin-4-yl)amino)phenyl)acrylamide]	E (a p-RSK inhibition percent of ≧70%)
	< 100	101 to 500	< 100	E (a mass modification of ≧70%)			< 100	C=CC(=O)Nc1ccccc1Nc1nc(N[C@@H]2CCC[C@H](C(N)=O)C2)ncc1C(F)(F)F (racemic) [Compound I-2, Rac-cis-3-((4-((2-acrylamidophenyl)amino)-5-(trifluoromethyl)pyrimidin-2-yl)amino)cyclohexanecarboxamide]	
	< 100	101 to 500	< 100					C=CC(=O)Nc1ccccc1Nc1nc(Nc2ccc(F)cc2C#N)ncc1Cl [Compound I-211, N-(2-((5-chloro-2-((2-cyano-4-fluorophenyl)amino)pyrimidin-4-yl)amino)phenyl)acrylamide]	
	< 100	101 to 500	< 100	E (a mass modification of ≧70%)				C=CC(=O)Nc1ccccc1Nc1nc(NC2CCCC(C(N)=O)C2)ncc1Cl (racemic) [Compound I-102]	

Structure (SMILES)	GI50 [1] [nM]	EC50 [2] [nM]	GI50 [3] [nM]	EC50 (ERK1/ERK2) [nM]	ERK1 Mass Mod (%) (Erk1)	GI50 [4] [nM]	EC50 [6] [nM]	IC50 (MEK1 activated ERK1) [nM]	p-RSK inhibition at 6 hr (%) [5]
C=CC(=O)Nc1cc(F)ccc1Nc1nc(Nc2ccc(F)cc2C)ncc1Cl [Compound I-212, N-(2-((5-chloro-2-((4-fluoro-2-methylphenyl)amino)pyrimidin-4-yl)amino)-5-fluorophenyl)acrylamide]		< 100	101 to 500	< 100	F (a mass modification of 31-69%)				
